From patent US9675592B2, “Methods and compositions for bacteria infections” (priority 2013, dated 2017)
≈ marks a conversion by molar mass, not a printed value. Where “and” joins values, the source holds several entries; their conditions need not be identical. Equal values may be shown once. Read-outs that look alike come from different tables or passages of the source.

Tests used:
[1] = test system: hetero VISA isolate, hVISA 2275; settings: cited from earlier work
[2] = test system: vancomycin intermediate resistant Staphylococcus aureus strain, VISA 2283; settings: cited from earlier work; for MIC Van: vancomycin alone
[3] = test system: vanA containing VRSA strain VRS2; settings: cited from earlier work
[4] = test system: vanA containing VRSA strain VRS1; settings: cited from earlier work
[5] = test system: vraSR promoter (Pvra-lux reporter in strain 923); type: cell-based, Staphylococcus aureus
Protocol: In the secondary screen each microtiter plate contained either cells in TSB alone (16 replicates), cells with oxacillin (2 μg/mL, 31 replicates), or cells with test compound and oxacillin (2 μg/mL, 49 wells). Each compound was assayed in four separate biological replicates. […]

[6] = molecular target: VraR (Staphylococcus aureus, UniProt Q7A4R9); test: biochemical; type: binding; settings: for Kd / RUmax VraR: His-tagged VraR; for Kd: NB = No Binding; for binding to VraR: SPR
[7] = test system: test strain 923 pPvra-lux (USA300 MRSA); test: Primary screen, relative growth in presence of oxacillin; settings: compound 10 μM with oxacillin 2 μg/mL, absorbance 24 h, <0.50 = dead cells = hit
[8] = molecular target: cytoplasmic domain of VraS (VraS-C) (Staphylococcus aureus, UniProt Q99SZ7); test: biochemical; type: binding
[9] = molecular target: PurC (unrelated protein, control) (Bacillus anthracis, UniProt Q81ZH5); type: binding; settings: read-out: KD PurC (control)
[10] = test system: test strain 923 pPvra-lux; test: Secondary screen / synergy confirmation of Top 40, relative growth with oxacillin; type: cell-based, Staphylococcus aureus; settings: Top 40 library, compound at maximum non-GI conc
Protocol: In the secondary screen each microtiter plate contained either cells in TSB alone (16 replicates), cells with oxacillin (2 μg/mL, 31 replicates), or cells with test compound and oxacillin (2 μg/mL, 49 wells). Each compound was assayed in four separate biological replicates.
Synergy Confirmation of “Top 40”. […]

[11] = test system: vraSR promoter (Pvra-lux reporter in strain 923); test: Primary screen, relative luminescence (vraSR expression)
[12] = test system: multiple strains of MRSA; test: MICs (minimal inhibitory concentrations) vs multiple strains of MRSA; type: cell-based, Staphylococcus aureus; settings: compound at 0.25 mg/L
[13] = test system: test strain (923 pPvra-lux); test: Growth inhibition by compound alone (maximum non-growth-inhibitory concentration); type: cell-based, Staphylococcus aureus; settings: compound alone; maximum concentration where it did NOT inhibit growth
[14] = new run with His-tagged VraS, NB = No Binding, read-out: KD VraS

Sequence of cytoplasmic domain of VraS (VraS-C) (Q99SZ7 70-347): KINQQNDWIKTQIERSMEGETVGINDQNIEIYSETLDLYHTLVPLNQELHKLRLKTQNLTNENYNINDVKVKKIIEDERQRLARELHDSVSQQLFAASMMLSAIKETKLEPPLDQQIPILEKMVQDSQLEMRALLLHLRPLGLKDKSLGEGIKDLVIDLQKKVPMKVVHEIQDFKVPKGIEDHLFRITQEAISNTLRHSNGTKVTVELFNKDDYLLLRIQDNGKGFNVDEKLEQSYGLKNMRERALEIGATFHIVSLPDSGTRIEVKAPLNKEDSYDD
Sequence of VraR (Q7A4R9 whole entry): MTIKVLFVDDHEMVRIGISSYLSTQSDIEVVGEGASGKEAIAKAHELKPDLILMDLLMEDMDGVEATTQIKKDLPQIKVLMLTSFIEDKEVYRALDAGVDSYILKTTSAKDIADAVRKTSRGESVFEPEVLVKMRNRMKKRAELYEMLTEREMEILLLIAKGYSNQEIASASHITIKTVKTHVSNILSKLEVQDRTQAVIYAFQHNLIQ
Sequence of PurC (unrelated protein, control) (Q81ZH5 whole entry, looked up): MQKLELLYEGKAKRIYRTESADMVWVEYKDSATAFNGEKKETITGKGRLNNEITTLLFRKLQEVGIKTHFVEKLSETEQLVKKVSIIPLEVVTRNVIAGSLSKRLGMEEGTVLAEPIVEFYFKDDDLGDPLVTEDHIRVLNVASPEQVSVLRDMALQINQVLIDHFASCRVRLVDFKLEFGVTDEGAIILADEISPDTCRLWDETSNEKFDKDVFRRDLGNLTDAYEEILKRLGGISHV

CN[C@H](CC(C)C)C(=O)N[C@H]1C(=O)N[C@@H](CC(N)=O)C(=O)N[C@H]2C(=O)N[C@H]3C(=O)N[C@H](C(=O)N[C@H](C(=O)O)c4cc(O)cc(O)c4-c4cc3ccc4O)[C@H](O)c3ccc(c(Cl)c3)Oc3cc2cc(c3O[C@@H]2O[C@H](CO)[C@@H](O)[C@H](O)[C@H]2O[C@H]2C[C@](C)(N)[C@H](O)[C@H](C)O2)Oc2ccc(cc2Cl)[C@H]1O [Van, Vancomycin]
MIC Van ([1]; vancomycin alone, hVISA 2275): 4 µg/mL (≈ 2.76 µM)
MIC Van ([2]; VISA 2283): 8 µg/mL (≈ 5.52 µM)
MIC Van ([2]; VISA 2283, listed as vancomycin): 16 µg/mL and 8 µg/mL
MIC Van ([3]; vancomycin alone): 16 µg/mL (≈ 11 µM)
MIC Van ([4]; vancomycin alone): 1024 µg/mL (≈ 707 µM)

CSc1cccc(-c2nnc(NC(=O)c3nc4ccccc4s3)o2)c1 [F2645-0188]
RL Ox avg ([5]; Top 40 library, with oxacillin, compound at maximum non-GI conc): 0.05
vraSR repressing synergist ([5]; overall class from syn and rep): 1. confirmed
Kd [6]: > 100 µM
RG avg (relative growth) [7]: 0.03
Kd ([8]; His-tagged VraS-C, SPR, read-out: KD): 56.1 ± 16.3 µM
binding to VraS-C ([8]; SPR): Binds
RUmax VraS ([8]; new run with His-tagged VraS): (74.1 ± 10.7)
RUmax VraS ([8]; previous run with untagged VraS): 325 ± 33
Kd ([8]; untagged VraS-C protein, SPR, read-out: KD): 13.2 ± 3.2 µM
Kd [9]: > 100 µM
RG Ox avg [10]: 0.03
RL avg (relative luminescence) ([11]; primary screen, compound 10 μM with oxacillin 2 μg/mL, <0.50 = vraSR repressed = hit): 0.37
Ox MIC in presence of compound ([12]; isolate 923, SCCmec IV, ST 8): 2 µg/mL
Ox MIC in presence of compound ([12]; isolate 1176, SCCmec II, ST 231): <0.5 µg/mL
Ox MIC in presence of compound ([12]; isolate 2169, SCCmec IV, ST 72): 0.5 µg/mL
Ox MIC in presence of compound ([12]; isolate 8004-01, SCCmec III, ST 239): 64 µg/mL
Ox MIC in presence of compound ([12]; isolate 8010-01, SCCmec IV, ST 8): 0.5 µg/mL
Ox MIC in presence of compound ([12]; isolate 8227-01, SCCmec IV, ST 87): 0.5 µg/mL
Ox MIC in presence of compound ([12]; isolate 11095, SCCmec II, ST 105): 32 µg/mL
Ox MIC in presence of compound ([12]; isolate 13113, SCCmec II, ST 5): <0.13 µg/mL
Ox MIC in presence of compound ([12]; isolate 13354, SCCmec IV, ST 5): <0.13 µg/mL
Ox MIC in presence of compound ([12]; isolate 14315, SCCmec IV, ST 1): <0.5 µg/mL
Ox MIC in presence of compound ([12]; isolate Q2461, SCCmec VT, ST 59): 0.25 µg/mL
maximum non-GI conc [13]: 40 µg/mL

O=C(Nc1nnc(-c2ccc3c(c2)CCCC3)o1)c1nc2ccccc2s1 [F0608-0570]
Kd [6]: > 100 µM
Kd [8, 14]: > 100 µM
Kd [9]: > 100 µM

O=C(Nc1nnc(-c2ccc3c(c2)CCCC3)o1)c1cccc(C(F)(F)F)c1 [F0608-0575]
Kd [6]: > 100 µM
Kd [8, 14]: > 100 µM
Kd [9]: > 100 µM

O=C(Nc1nnc(-c2ccccc2Cl)o1)c1cccc(C(F)(F)F)c1 [F1374-0037]
Kd [6]: > 100 µM
RG avg (relative growth) [7]: 0.02
binding to VraS-C ([8]; SPR): bound
RUmax VraS ([8]; new run with His-tagged VraS): 45.1 ± 3.2
Kd [8, 14]: 25.8 ± 4.8 µM
Kd [9]: > 100 µM
RL avg (relative luminescence) [11]: 0.35

CS(=O)(=O)c1ccc(-c2nnc(NC(=O)c3ccc(Cl)s3)o2)cc1 [F2645-0790]
Kd [6]: > 100 µM
Kd [8, 14]: > 100 µM
Kd [9]: > 100 µM

Cc1ccc(C)c(-c2nnc(NC(=O)c3ccccc3F)o2)c1 [F2518-0382]
Kd [6]: > 100 µM
Kd [8, 14]: > 100 µM
Kd [9]: > 100 µM

O=C(Nc1nnc(-c2ccccc2Cl)o1)c1nc2ccccc2s1 [F1374-0033]
Kd [6]: > 100 µM
binding to VraS-C ([8]; SPR): bound
RUmax VraS ([8]; new run with His-tagged VraS): 64.3 ± 5.4
Kd [8, 14]: 19.6 ± 4.4 µM
Kd [9]: > 100 µM

Cc1ccc(C)c(-c2nnc(NC(=O)c3nc4ccccc4s3)o2)c1 [F2518-0327]
RUmax VraR [6]: 46.5 ± 2.9
Kd [6]: 15.4 ± 6.4 µM
binding to VraR [6]: bound
Kd [8, 14]: > 100 µM
Kd [9]: > 100 µM

O=C(Nc1nnc(-c2ccc(Br)cc2)o1)c1ccc(Cl)s1 [F2518-0474]
RUmax VraR [6]: 27.5 ± 2.4
Kd [6]: 22.2 ± 5.4 µM
RG avg (relative growth) [7]: 0.01
binding to VraS-C ([8]; SPR): bound
RUmax VraS ([8]; new run with His-tagged VraS): 52.9 ± 12.8
Kd [8, 14]: 79.5 ± 34.6 µM
Kd [9]: > 100 µM
RL avg (relative luminescence) [11]: −0.01

O=C(Nc1nnc(-c2ccc(Br)cc2)o1)c1sc2ccccc2c1Cl [F2518-0484]
Kd [6]: > 100 µM
Kd [8, 14]: > 100 µM
Kd [9]: > 100 µM

CCN(CC)CCOc1ccc(C(=C(Cl)c2ccccc2)c2ccccc2)cc1 [Clo, Clomiphene]
MIC compound (Clo, Pyr, Gos) ([1]; compound alone, hVISA 2275): 12 µg/mL (≈ 29.6 µM)
Synergy category ([1]; hVISA 2275): partial (partially potentiated vancomycin (FIC i>0.5 and <1.0))
potentiation of vancomycin ([1]; hVISA): partially potentiated
MIC (in combination) Clo+, Pyr+, Gos+ ([2]; MIC of the compound in combination with the indicated Van concentration, VISA 2283): 3 µg/mL
FICi V + compound ([2]; VISA 2283): 0.75
Synergy category ([2]; VISA 2283): partial (partially potentiated vancomycin (FIC i>0.5 and <1.0))
potentiation of vancomycin ([2]; VISA): partially potentiated
MIC compound (Clo, Pyr, Gos) ([2]; compound alone, VISA 2283): 12 µg/mL (≈ 29.6 µM)
Van FIC ([2]; in combination with compound, VISA 2283): 0.5
Clo FIC, Pyr FIC, Gos FIC ([2]; in combination with vancomycin, VISA 2283): 0.25
MIC (in combination) Van+ ([2]; vancomycin MIC when used in combination with compound, VISA 2283): 4 µg/mL
potentiation of vancomycin [3]: fully potentiated
MIC compound (Clo, Pyr, Gos) ([3]; compound alone): 12 µg/mL (≈ 29.6 µM)
FICi V + compound [4]: 0.75
Synergy category [4]: partial (partially potentiated vancomycin (FIC i>0.5 and <1.0))
potentiation of vancomycin [4]: partially potentiated
MIC compound (Clo, Pyr, Gos) ([4]; compound alone): 12 µg/mL (≈ 29.6 µM)

O=C(Nc1nnc(-c2cc(Cl)sc2Cl)o1)c1nc2ccccc2s1 [F1374-2739]
RUmax VraR [6]: 80.3 ± 8.8
Kd [6]: 54.4 ± 12.2 µM
binding to VraR [6]: bound
binding to VraS-C ([8]; SPR): bound
RUmax VraS ([8]; new run with His-tagged VraS): 69.1 ± 6.2
Kd [8, 14]: 69.6 ± 11.6 µM
Kd [9]: > 100 µM

O=C(Nc1nnc(-c2ccc(F)cc2)o1)c1nc2ccccc2s1 [F1374-0138]
Kd [6]: > 100 µM
Kd [8, 14]: > 100 µM
Kd [9]: > 100 µM
